From article PMC11053681, “Gold(I) and Silver(I) Complexes Containing Hybrid Sulfonamide/Thiourea Ligands as Potential Leishmanicidal Agents” (Pharmaceutics, 2024)
Values joined by “and” are separate entries in the source; they are usually repeats but may differ in a detail not shown here. Equal entries are not always repeated. “Also recorded” adds a separate entry of the source. Where two headings read alike, the source gives them in different places.

Columns and labels:
L. infantum = system: L. infantum; parameters: method as in PMID 21833767, PMID 22926569; conditions: conditions and methods vary; read-out: Antileishmanial activity of other compounds; cited from earlier work
LbOYE [1] = target: T1, LbOYE (Leishmania braziliensis, UniProt A4H6Z3); test: Suppression of intrinsic tryptophan fluorescence of LbOYE; type: binding; conditions: for Affinity of LbOYE for the compound (fluorescence quenching), in words: Hill fit for Kd not possible for these ligands; for Kd / Ksv *** (Stern–Volmer constant) / n ** (number of bonding sites): 25 °C; for Ksv *** (Stern–Volmer constant): Equation (3)
T1 sequence (A4H6Z3 entry or part of it): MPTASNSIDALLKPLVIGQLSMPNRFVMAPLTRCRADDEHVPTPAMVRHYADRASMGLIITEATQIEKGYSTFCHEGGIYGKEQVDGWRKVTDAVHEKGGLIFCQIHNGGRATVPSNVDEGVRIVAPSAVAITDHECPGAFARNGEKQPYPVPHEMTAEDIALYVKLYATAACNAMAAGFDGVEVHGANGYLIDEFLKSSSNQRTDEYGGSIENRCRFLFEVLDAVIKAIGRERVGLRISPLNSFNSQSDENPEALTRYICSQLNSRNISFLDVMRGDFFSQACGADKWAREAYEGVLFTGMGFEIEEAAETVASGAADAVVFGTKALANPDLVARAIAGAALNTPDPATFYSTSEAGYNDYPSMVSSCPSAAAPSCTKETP
Description: The recombinant LbOYE protein was produced using the methodology previously described. Briefly, the protein was expressed in strains of bacterial Escherichia coli BL21(DE3) through induction by IPTG using the pET28a:LbOYE vector. The enzyme was purified through a chromatography step of capture by nickel affinity, as the pET28a vector allows the expression of a polyhistidine fusion peptide, located at the N-terminal end of the protein. After affinity purification, the polyhistidine tail was excised by “overnight” incubation with thrombin, and the second purification step was performed using size exclusion chromatography. Purification was evaluated by SDS-PAGE and protein concentration was estimated by spectrophotometry.
The emission spectra of the intrinsic fluorescence of the tryptophan were recorded using a Shimadzu F-4500 spectrofluorometer in the range of 310–420 nm, with opening of slits of excitation and emission at 5.0 nm and λex = 295 nm. Interaction analyzes between LbOYE and ligands were performed at λmax = 333 nm.
(§1) The compounds were solubilized in DMSO and then we made successive dilutions in a Tris-HCl 25 mmol L^−1 buffer, pH 8.0, containing 100 mmol L^−1 of NaCl. For all experiments, the final concentration of DMSO was kept constant and equal to 2.5%. Solutions with increasing concentrations of ligand and constant concentration of LbOYE (1 µmol L^−1) were prepared, which were kept at 25 °C for a period of 1h before acquisition of fluorescence emission spectra.
The results were obtained from the fluorescence emission spectra of the intrinsic tryptophan probe in the presence of the compounds HL1^Ch, HL3^FPh, HL5^NO2Ph, [Au(HL1^Ch)2]Cl and [Ag(HL3^FPh)2]NO3. The bonding parameters were determined by the Hill plot, obtaining the dissociation constant (Kd) through the non-linear adjustment of the saturation curve to the experimental data. The double-log plot was used to determine the bonding constant and the number of bonding sites (n). It also allows the calculation of the bonding constant (Kb) and Kd from 1/Kb.
Equation (1)—Hill’s equation:(1) F0−F/F0=[L]/L+Kd
Equation (2)—Double-log:(2) logF0−F/F0=nlogKb−nlog1/L−(F0−F)[P0]/F
Equation (3)—Equation of Stern–Volmer:(3) F0/F=1+KSV[L]
The study of fluorescence quenching can be affected when the ligand has absorption bands that coincide with excitation and emission wavelengths of fluorescence. This interference is called the internal filter effect, which can be minimized using the procedure described by Equation (4). Fobs and Fcor are the fluorescence intensities at 333 nm measured and corrected, respectively; l represents the optical step where the absorption and emission of light occurs and C0 is the concentration of the ligand.
For the correction of the internal filter effect, were used the molar absorptivity coefficient values in the excitation (295 nm) and emission (333 nm) lengths, [λ/ε (L mol^−1 cm^−1)]; HL1^Ch (εex = 373 and εem = 117), HL3^FPh (εex = 1191 and εem = 57), HL5^NO2Ph (εex = 6162 and εem = 9124), Au1 (εex = 7045 and εem = 4008) and Ag3 (εex = 9431 and εem = 3281).

Leishmania braziliensis = test: Leishmanicidal activity against promastigotes (resazurin); type: cell-based; conditions: for IC50: promastigote form, 24 h treatment, resazurin, read-out: IC50 L. braziliensis; for SI L. braziliensis: selectivity index = CC50 (Vero) / IC50 (L. braziliensis promastigotes)
Description: (§2) The Leishmania infantum and Leishmania braziliensis strains were maintained in Schneider medium supplemented with 20% of SFB (Schneider 20%), cultivated in […] bottles and stored at 28 °C in a BOD oven. For the assays, parasites at the 5th day stationary growth phase were used.
(§3) The promastigotes metacyclic form of Leishmania infantum and Leishmania braziliensis were first filtered with an insulin syringe to break up rosettes and, then, were isolated from the culture in the stationary phase by centrifugation of 400× g for 4 min at a temperature of 4 °C [53]. The supernatant was subjected to a new centrifugation, heavier, of 2000× g for 30 min, also at 4 °C. The supernatant was discarded and the cell pallet formed from this centrifugation was resuspended in 10 mL of 10% Schneider medium. The process ensured the removal of cellular debris and dead parasites, as well as possible crystals from the culture medium, so that the quality of the experiment was guaranteed. Then, the promastigotes were diluted to 1:10 in paraformaldehyde (PFA) for counting in a Neubauer Chamber, with the concentrations adjusted for each experiment.
(§4) An amount of 1 × 10^7 parasites per well was used. The parasites were plated in 96-well plates. Then, the compounds were added in triplicate, starting at a concentration of 500 µM, with serial dilutions being performed up to a concentration of 3.9 µM [53]. The treatment was carried out for 24 h and, after adding 5 µL of resazurin, the fluorescence was read using a Enspire model spectrofluorometer (Perkin-Elmer, Waltham, MA, USA).

Leishmania infantum = test: as above; type: cell-based; conditions: for IC50: promastigote form, 24 h treatment, resazurin, read-out: IC50 L. infantum; for SI L. infantum: selectivity index = CC50 (Vero) / IC50 (L. infantum promastigotes)
Description: as §2, §3, §4

[2] = Solubility in buffer for the fluorescence experiments; type: physicochemical; conditions: Tris-HCl buffer
Description: as §1
After the synthesis and structural characterization of the compounds, studies of interaction of the compounds and the recombinant LbOYE were carried out by fluorescence measurements.

[3] = system: RAW macrophages infected with Leishmania infantum; test: Infectivity test / infection rate in RAW macrophages; type: cell-based; conditions: three concentrations (below IC50, IC50, above IC50), 24 h treatment
Description: For the infection of RAW macrophages adhered to the plates, we used parasites in the promastigote form of Leishmania infantum, in the stationary phase, in a ratio of 10:1 (promastigotes/macrophages).
Macrophages were plated in the amount of 5 × 10^4 cells per well, in 96-well plates, which were kept in a CO2 oven at 37 °C for 24 h. The parasites were plated at a concentration of 10:1. The plates were kept in a CO2 oven for 12 h until the parasites infected the cells. […] Plates were fixed with paraformol for further evaluation. Plaques were evaluated by counting parasites within 200 cells under the EVOS Cell Imaging System (Thermo Scientific, Waltham, MA, USA) microscope by staining with propidium iodide.
In view of the data obtained, the six most promising compounds (HL1^Ch, HL2^Ph, Ag3, Ag4, Ag6 and Au2) were selected for carrying out the infection rate test against the L. infantum parasite. […] This test was performed at four stages. The first step determined the percentage of the amount in 200 infected macrophages per parasite, the second determined the percentage of parasites that infects 100 cells/macrophages, the third determined the average percentage of parasites that infects 200 cells/macrophages and, finally, the fourth step indicated the infection rate, that is, the result of the amount of Leishmania per macrophage (obtained from the third step) multiplied by the percentage of infected macrophages. Figure 5 presents the graphs of the infection rates, while the other graphs can be found in Figure S7.4.

[4] = Cytotoxicity assay on Vero cells (resazurin); type: cell-based, African green monkey; conditions: African green monkey, Vero cells (ATCC CRL-1587), 24 h treatment
Description: (§5) For the experiment, Vero cells (ATCC CRL-1587) were used in Roswell Parl Memorial Institute (RPMI) medium with 10% fetal bovine serum (FBS) (RPMI 10%) and 20 μg/mL of Gentamicin. They were cultivated in culture bottles of […] and kept in an oven at 37 °C with 5% carbon dioxide (CO2). When picked or used on the day of the experiment, the cells were detached from the wall of the bottles with saline and 1X trypsin/EDTA. To find out how many cells there were in the bottle, it was diluted in Turkey liquid and then we proceeded with the counting in the Neubauer Chamber to calculate the desired concentrations. The Vero cells were plated at […] cells per well, in 96-well plates, and kept in an incubator with 5% CO2 at 37 °C for 24 h. Then, the compounds were added in triplicate, starting at a concentration of 500 µM, with serial dilution being performed up to a concentration of 3.9 µM [54]. The treatment was carried out for 24 h, and, after adding 5 µL of resazurin, the fluorescence was read using a spectrofluorometer (EnSpire Perkin-Elmer, Waltham, MA, USA).

L. braziliensis = system: L. braziliensis; parameters: method as in PMID 32830445; conditions: activity against L. braziliensis and cytotoxicity on macrophages; cited from earlier work
LbOYE [5] = target: T1, LbOYE; test: LbOYE enzyme kinetics (NADPH decay at 340 nm); type: biochemical; conditions: 20 µmol L^−1 compound, 1 µmol L^−1 LbOYE, 100 µmol L^−1 NADPH; substrates NEM and O2
Description: The initial rates were obtained through the decay of the band at 340 nm referring to the maximum absorption of the NADPH (Nicotinamide Adenine Dinucleotide Phosphate) reducer, as previously reported. Solutions containing 1 µmol L^−1 of LbOYE, DMSO or 20 µmol L^−1 of the tested compounds from a stock solution at a concentration of 5 mmol L^−1 in DMSO were prepared in the presence and absence of the substrate N-Ethylmaleimide (NEM). These solutions were left for 30 min at room temperature. After 30 min, the NADPH reducer was added at a final concentration of 100 µmol L^−1.
Figure 7 Initial velocity (V0) for the reaction between 1 µmol L^−1 of LbOYE and 100 µmol L^−1 of NADPH in the presence of DMSO (control) or 20 µmol L^−1 of the compounds tested. Using (A) 100 µmol L^−1 of NEM in the presence of O2 and (B) absence of NEM in the presence of O2. Experiments carried out in phosphate buffer 25 mmol L^−1 pH 7.0, NaCl 100 mmol L^−1.

Vero cells = test: Cytotoxicity assay on Vero cells (resazurin); type: cell-based, African green monkey; conditions: 24 h treatment
Description: as §5

[6] = Hill plot (n = 1), Equation (1), Tris-HCl pH 8.0, 2.5% DMSO, read-out: Kd * (Hill plot)
[7] = double log, Equation (2), Kd = 1/Kb, read-out: Kd ** (double log) (converted)

Solubility in buffer at the concentrations for the fluorescence experiments, in words [2] | Compound | IC50 (L. infantum) [µM] | IC50 (Leishmania braziliensis; Leishmania braziliensis) [µM] | SI L. braziliensis (Leishmania braziliensis) | IC50 (Leishmania infantum; Leishmania infantum) [µM] | SI L. infantum (Leishmania infantum) | CC50 at 24 h [4] [µM] | also measured
– | COc1cc(NC(C)CCCN)c2ncccc2c1 (centres unmarked) [primaquine] | 26.5 ± 1.2 | – | – | – | – | – | –
– | CCP(CC)CC.[Au+].[Cl-] [[AuCl(PEt3)]] | 16.6 ± 1.03 | – | – | – | – | – | –
– | CC(=O)OC[C@H]1O[C@@H]([S-])[C@H](OC(C)=O)[C@@H](OC(C)=O)[C@@H]1OC(C)=O.CCP(CC)CC.[Au+] [auranofin] | 9.68 ± 1.02 | – | – | – | – | – | –
passed this stage | Cc1ccc(S(=O)(=O)NNC(=S)NC2CCCCC2)cc1 [HL1^Ch] | – | 128.9 ± 0.051 | 2.27 | 11 ± 0.306 | 26.6 and 26.64 | 293 | Affinity of LbOYE for the compound (fluorescence quenching), in words (LbOYE [1]): lower affinity; Infection rate of L. infantum in macrophages, in words [3]: considerably lowered the infection rate of the parasite even at a concentration below its IC50
– | C[C@@H]1[C@H](O)[C@@H](C)/C=C/C=C/C=C/C=C/C=C/C=C/C=C/[C@H](O[C@@H]2O[C@H](C)[C@@H](O)[C@H](N)[C@@H]2O)C[C@@H]2O[C@](O)(C[C@@H](O)C[C@@H](O)[C@H](O)CC[C@@H](O)C[C@@H](O)CC(=O)O[C@H]1C)C[C@H](O)[C@H]2C(=O)O [amphotericin B] | – | – | – | – | – | – | SI (L. braziliensis): 6.8
passed this stage | Cc1ccc(S(=O)(=O)NNC(=S)Nc2ccc([N+](=O)[O-])cc2)cc1 [HL5^NO2Ph, N-(4-nitrophenyl)-2-tosylhydrazinocarbothioamide] | – | 19.02 ± 0.012 | 1.40 | 286.9 ± 0.075 | 0.09 | 26.6 | Kd (LbOYE [1]; [6]): 35 ± 2 µM; Ksv *** (Stern–Volmer constant) (LbOYE [1]): 6.5 ± 0.4 × 10^4; Kd (LbOYE [1]; [7]): 19 ± 1 µM; n ** (number of bonding sites) (LbOYE [1]; double log, Equation (2)): 1.5 ± 0.1
– | Cc1ccc(S(=O)(=O)NNC(=S)Nc2ccccc2)cc1 [HL2^Ph] | – | 273.5 ± 0.018 | 0.98 | 48.39 ± 0.189 | 5.5 and 5.54 | 268 | Infection rate of L. infantum in macrophages, in words [3]: the infection index was not relevant for a concentration below its IC50
passed this stage | Cc1ccc(S(=O)(=O)NNC(=S)Nc2ccc(F)cc2)cc1 [HL3^FPh, N-(4-fluorophenyl)-2-tosylhydrazinocarbothioamide] | – | 204.5 ± 0.018 | 1.43 | 201.2 ± 0.052 | 1.450 | 292 | Affinity of LbOYE for the compound (fluorescence quenching), in words (LbOYE [1]): lower affinity; also recorded: low affinity
passed this stage | Cc1ccc(S(=O)(=O)NNC(NC2CCCCC2)=[S][Au+][S]=C(NNS(=O)(=O)c2ccc(C)cc2)NC2CCCCC2)cc1.[Cl-] [Au1, [Au(HL1^Ch)2]Cl] | – | – | 0.26 | – | 0.19 | – | Inhibition of LbOYE reaction (initial velocity V0), in words (LbOYE [5]): demonstrates capacity of inhibition, although less than the Ag3; Kd (LbOYE [1]; [6]): 110 ± 30 µM; Ksv *** (Stern–Volmer constant) (LbOYE [1]): 2.4 ± 0.2 × 10^4; Kd (LbOYE [1]; [7]): 39 ± 3 µM; n ** (number of bonding sites) (LbOYE [1]; double log, Equation (2)): 1.8 ± 0.1; IC50 (Leishmania braziliensis): 77.38 ± 0.018 µM; IC50 (Leishmania infantum): 105 ± 3.14 µM; CC50 (Vero cells): 19.9 µM
– | CCCCCCCCCCCCCCCCOP(=O)([O-])OCC[N+](C)(C)C [miltefosine] | 14.4 ± 1.1 | – | – | – | – | – | –
